Results reported in US4501734A, “Promotion of absorption of drugs administered through the alimentary system” (priority 1981, dated 1985).

How the values were obtained:
[1] = Ampicillin blood level after injection with galenical extract or isolated saponin into rat duodenal loop (Experimental method A); details: in vivo
Procedure: Rats weighing 180 to 220 g were anesthetized with 30 mg/kg of pentobarbital sodium and fixed by supination on a water bed made of a metal through which water regulated at a constant temperature of 39° C. was circulated. A duodenal loop of 10 cm length was prepared in a conventional manner with the point 1 cm under the pyloric part of the stomach as the starting point. […] The rats were bled from jugular veins 10, 20, 40, 60, 90, 120, 180 and 240 minutes after injection and activity concentration in the blood in each case was measured according to biological assay.
That is, according to The Japan Antibiotic Drug Standards, using Bacillus subtilis as test microorganism, cultivation assay was performed by the paper disc method at 37° C. for 15 to 20 hours.
The composition of the solution had the following composition:
Galenical extract: 2 mg/ml-20 mg/ml
(§1) Experimental method A was repeated except that saponins A, B and C were respectively used in a concentration of 5 mg/liter in place of the galenical extract in a solution to be administered.

[2] = Ampicillin blood level after suppository with saponin A, B or C (suppository tests); format: in vivo; details: rat
Procedure: The effectiveness of the saponins A, B and C when they were formulated into suppositories was tested in a method similar to the above Experimental method A.
Thus, rats weighing 180 to 220 g were anesthetized with 30 mg/kg of pentobarbital sodium and fixed by supination on a water bed made of a metal through which water regulated at a constant temperature of 39° C. was circulated. A suppository in a proportion of 1 g/kg of body weight of the rat was inserted through the anus and pushed by a glass bar until it reached the connecting point of the pubes.
The suppositories tested had the following compositions:
Saponin A, B or C: 0.5-2 mg/kg-rat, and
Vehicle*: remainder for giving 1 mg of suppository/kg-rat.
*Witepsol® produced by Dynamit Novel A.G.
Thus, the assay was performed by the paper disc method according to The Japan Antibiotic Drug Standards using Bacillus subtilis as the test microorganism.

[3] = Ampicillin blood level after administration with galenical extract by stomach probe (Experimental method B); format: in vivo; details: rat
Procedure: Rats weighing 200 to 230 g under anesthesia with ether were intubated with polyethylene tube (PE-10) at the femoral artery with ligation. The other end of PE-10 was passed subcutaneously to be led to the cervicodorsal part, at which it was drawn out of the skin and fixed with capping. After restoration of the vulnus at the operated portion (about 24 hours), each rat was provided for the experiment.
The test microorganism used was Bacillus subtilis, and the assay was performed by the paper disc method according to The Japan Antibiotic Drug Standards.

duodenum mucosa = test: Observation of the duodenum employed in the experiment for mucosa damage; format: in vivo; details: rat duodenum employed in the experiment
Procedure: as §1
Examples according to the above experimental method are shown in the following Examples 6, 7 and 8. […] This may be ascribed to low acute toxicity of the drug absorption promoter of the present invention, as can readily be understood from the fact that the galenicals used in the present invention have been widely accepted as herb medicines or the like.

For `CC1(C)S[C@@H]2[C@H](NC(=O)[C@H](N)c3ccccc3)C(=O)N2[C@H]1C(=O)O` [ampicillin sodium], the “Concentration in Blood, 20 min. (Control)” value ([1]; 20 min) was 0.89 ± 0.07 μg titer/ml, the “Concentration in Blood, 40 min. (Control)” value ([1]; 40 min) was 1.1 μg titer/ml and the “Concentration in Blood, 240 min. (Control)” value ([1]; 4 h) was 0.5 μg titer/ml. For the same compound, the concentration at 10 min ([1]; Concentration in Blood, 10 min. (Control)) was 600 ng/mL, the concentration at 40 min ([1]; Concentration in Blood, 40 min. (Control)) was 1100 ng/mL and the concentration at 1 h ([1]; Concentration in Blood, 60 min. (Control)) was 1200 ng/mL. The concentration at 3 h ([1]; Concentration in Blood, 180 min. (Control)) was 500 ng/mL, the concentration at 4 h ([1]; Concentration in Blood, 240 min. (Control)) was 500 ng/mL and the concentration at 5 min ([2]; in vivo, 50 mg/kg) was 3120 ± 1660 ng/mL. It also gave a concentration at 10 min ([2]; in vivo, 50 mg/kg) of 3980 ± 1890 ng/mL, a concentration at 35 min ([2]; in vivo, 50 mg/kg) of 1910 ± 890 ng/mL and a concentration at 1 h ([2]; in vivo, 50 mg/kg) of 930 ± 540 ng/mL. The “Concentration in Blood, 100 min.” value ([2]; suppository, ampicillin sodium 50 mg/kg, 100 min (Table 8A, upper part)) was “trace”, the “Concentration in Blood, 10 min. (- Control)” value ([3]; in vivo, po, 25 mg/kg, 10 min) was 0.3 μg titer/ml and the “Concentration in Blood, 20 min. (- Control)” value ([3]; in vivo, po, 25 mg/kg, 20 min) was 0.6 μg titer/ml. The “Concentration in Blood, 40 min. (- Control)” value ([3]; in vivo, po, 25 mg/kg, 40 min) was 1.3 μg titer/ml, the “Concentration in Blood, 60 min. (- Control)” value ([3]; in vivo, po, 25 mg/kg, 1 h) was 0.5 μg titer/ml and the concentration at 10 min ([3]; in vivo, po, 25 mg/kg, Concentration in Blood, 10 min. (- Control)) was 400 ng/mL. For the same compound, the concentration at 20 min ([3]; in vivo, po, 25 mg/kg, Concentration in Blood, 20 min. (- Control)) was 800 ng/mL, the concentration at 40 min ([3]; in vivo, po, 25 mg/kg, Concentration in Blood, 40 min. (- Control)) was 1200 ng/mL and the concentration at 1 h ([3]; in vivo, po, 25 mg/kg, Concentration in Blood, 60 min. (- Control)) was 800 ng/mL. For the same compound, the concentration at […] ([3]; in vivo, po, 25 mg/kg, Concentration in Blood, 90 min. (- Control)) was 300 ng/mL, the “Concentration in Blood, 90 min. (- Control)” value ([3]; stomach probe, ampicillin sodium without extract (Control), 90 min, tr.: trace) was “tr” and the “Concentration in Blood, 120 min. (- Control)” value ([3]; stomach probe, ampicillin sodium without extract (Control), 120 min, tr.: trace) was “tr”. For the same compound, the “Concentration in Blood, 180 min. (- Control)” value ([3]; stomach probe, ampicillin sodium without extract (Control), 180 min, tr.: trace) was “tr” and the “Concentration in Blood, 240 min. (- Control)” value ([3]; stomach probe, ampicillin sodium without extract (Control), 240 min, tr.: trace) was “tr”.

For `C[C@@H]1O[C@@H](O[C@H]2[C@H](O[C@H]3CC[C@@]4(C)[C@@H](CC[C@]5(C)[C@@H]4CC=C4[C@@H]6CC(C)(C)CC[C@]6(C(=O)O)CC[C@]45C)[C@]3(C)CO)OC[C@H](O)[C@@H]2O)[C@H](O)[C@H](O[C@@H]2OC[C@@H](O)[C@H](O)[C@H]2O)[C@H]1O` [Saponin B, 3-O-[β-D-xylopyranosyl-(1→3)-α-L-rhamnopyranosyl-(1→2)-α-L-arabinopyranosyl]-hederagenin], the “damage of mucosa or abnormality such as hemorrhagic spot of the duodenum” value (“damage of mucosa or abnormality such” for short) (duodenum mucosa) was “no damage of mucosa (e.g. mucosa ablation) or abnormality such as hemorrhagic spot”.

For `C[C@@H]1O[C@@H](O[C@H]2[C@H](O[C@H]3CC[C@@]4(C)[C@@H](CC[C@]5(C)[C@@H]4CC=C4[C@@H]6CC(C)(C)CC[C@]6(C(=O)O)CC[C@]45C)[C@]3(C)CO)OC[C@H](O)[C@@H]2O)[C@H](O)[C@H](O[C@@H]2O[C@@H](CO)[C@H](O)[C@H]2O)[C@H]1O` [Saponin C, 3-O-[α-L-arabinofuranosyl-(1→3)-α-L-rhamnopyranosyl-(1→2)-α-L-arabinopyranosyl]-hederagenin], the “damage of mucosa or abnormality such” value (duodenum mucosa) was “no damage of mucosa (e.g. mucosa ablation) or abnormality such as hemorrhagic spot”.

For `C[C@@H]1O[C@@H](O[C@H]2[C@H](O[C@H]3CC[C@@]4(C)[C@@H](CC[C@]5(C)[C@@H]4CC=C4[C@@H]6CC(C)(C)CC[C@]6(C(=O)O)CC[C@]45C)[C@]3(C)CO)OC[C@H](O)[C@@H]2O)[C@H](O)[C@H](O[C@@H]2OC[C@H](O)[C@H](O)[C@H]2O)[C@H]1O` [Saponin A, 3-O-[α-L-arabinopyranosyl-(1→3)-α-L-rhamnopyranosyl-(1→2) -α-L-arabinopyranosyl]-hederagenin], the “damage of mucosa or abnormality such” value (duodenum mucosa) was “no damage of mucosa (e.g. mucosa ablation) or abnormality such as hemorrhagic spot”.
